PubChem BioAssay (NCI)
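Compound exposure: 48 hours, 5 concentrations, 96-well plates. At the TGI there is no net growth.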

Experiments:
Assay in all cases: inhibition of tumour cell growth, NCI panel, 48 h
[1] = tested on: HCC-2998 colon
[2] = tested on: SNB-75 CNS
[3] = tested on: MOLT-4 leukemia
[4] = tested on: MDA-N
[5] = tested on: MDA-MB-435
[6] = tested on: K-562 leukemia
[7] = tested on: KM12 colon
[8] = tested on: NCI-H460 lung
[9] = tested on: RXF 393 renal
[10] = tested on: PC-3 prostate
[11] = tested on: SNB-19 CNS
[12] = tested on: SK-MEL-2 melanoma
[13] = tested on: SW-620 colon
[14] = tested on: OVCAR-4 ovarian
[15] = tested on: SF-295 CNS
[16] = tested on: RPMI-8226 leukemia
[17] = tested on: UACC-257 melanoma
[18] = tested on: MCF7 breast
[19] = tested on: LOX IMVI melanoma
[20] = tested on: T-47D breast
[21] = tested on: DU-145 prostate
[22] = tested on: OVCAR-3 ovarian
[23] = tested on: M14 melanoma
[24] = tested on: HS 578T breast
[25] = tested on: OVCAR-8 ovarian
[26] = tested on: SF-268 CNS
[27] = tested on: NCI-H522 lung
[28] = tested on: COLO 205 colon
[29] = tested on: 786-0 renal
[30] = tested on: EKVX NSCLC
[31] = tested on: NCI-H226 lung
[32] = tested on: MALME-3M melanoma
[33] = tested on: OVCAR-5 ovarian
[34] = tested on: IGROV1 ovarian
[35] = tested on: SF-539 CNS
[36] = tested on: HCT-15 colon
[37] = tested on: SK-MEL-28 melanoma
[38] = tested on: HOP-92 NSCLC
[39] = tested on: BT-549 breast
[40] = tested on: CAKI-1 renal
[41] = tested on: UO-31 renal
[42] = tested on: MDA-MB-231 breast
[43] = tested on: A498 renal
[44] = tested on: UACC-62 melanoma
[45] = tested on: ACHN renal
[46] = tested on: HL-60(TB) leukemia
[47] = tested on: CCRF-CEM leukemia
[48] = tested on: TK-10 renal
[49] = tested on: A549 NSCLC
[50] = tested on: NCI/ADR-RES ovarian
[51] = tested on: SK-MEL-5 melanoma
[52] = tested on: SR leukemia
[53] = tested on: HCT-116 colon
[54] = tested on: U251 CNS
[55] = tested on: SN12C renal
[56] = tested on: HOP-62 NSCLC
[57] = tested on: HT29 colon
[58] = tested on: SK-OV-3 ovarian
[59] = tested on: NCI-H23 lung
[60] = tested on: M19-MEL melanoma
[61] = tested on: DMS 114 small cell lung
[62] = tested on: XF 498 CNS
[63] = tested on: SNB-78 CNS
[64] = tested on: DLD-1 colon
[65] = tested on: HOP-18 NSCLC
[66] = tested on: DMS 273 small cell lung

Compound: CCOC(=O)c1nc2cc(C(F)(F)F)ccc2nc1Oc1ccc(C#N)cc1
- TGI [1]: > 100 µM
- TGI [2]: > 100 µM
- TGI [3]: > 100 µM
- TGI [4]: > 100 µM
- TGI [5]: > 100 µM
- TGI [6]: > 100 µM
- TGI [7]: > 100 µM
- TGI [8]: > 100 µM
- TGI [9]: > 100 µM
- TGI [10]: > 100 µM
- TGI [11]: > 100 µM
- TGI [12]: > 100 µM
- TGI [13]: > 100 µM
- TGI [14]: > 100 µM
- TGI [15]: > 100 µM
- TGI [16]: > 100 µM
- TGI [17]: > 100 µM
- TGI [18]: > 100 µM
- TGI [19]: > 100 µM
- TGI [20]: > 100 µM
- TGI [21]: > 100 µM
- TGI [22]: > 100 µM
- TGI [23]: > 100 µM
- TGI [24]: > 100 µM
- TGI [25]: > 100 µM
- TGI [26]: > 100 µM
- TGI [27]: > 100 µM
- TGI [28]: > 100 µM
- TGI [29]: > 100 µM
- TGI [30]: > 100 µM
- TGI [31]: > 100 µM
- TGI [32]: > 100 µM
- TGI [33]: > 100 µM
- TGI [34]: > 100 µM
- TGI [35]: > 100 µM
- TGI [36]: > 100 µM
- TGI [37]: > 100 µM
- TGI [38]: > 100 µM
- TGI [39]: > 100 µM
- TGI [40]: > 100 µM
- TGI [41]: > 100 µM
- TGI [42]: > 100 µM
- TGI [43]: > 100 µM
- TGI [44]: > 100 µM
- TGI [45]: > 100 µM
- TGI [46]: > 100 µM
- TGI [47]: > 100 µM
- TGI [48]: > 100 µM
- TGI [49]: > 100 µM
- TGI [50]: > 100 µM
- TGI [51]: > 100 µM
- TGI [52]: > 100 µM
- TGI [53]: > 100 µM
- TGI [54]: > 100 µM
- TGI [55]: > 100 µM

Compound: O=C1NC2c3c(I)sc(I)c3C(=O)C2O1 (configuration not stated)
- TGI [1]: 15.5 µM
- TGI [2]: 25.8 µM
- TGI [3]: > 38.5 µM
- TGI [56]: 28.1 µM
- TGI [4]: 9.16 µM
- TGI [5]: 17.5 µM
- TGI [6]: > 59.9 µM
- TGI [7]: 24.3 µM
- TGI [8]: 32.9 µM
- TGI [9]: 12.7 µM
- TGI [10]: 19 µM
- TGI [11]: 17.8 µM
- TGI [12]: 15.3 µM
- TGI [13]: 9.76 µM
- TGI [14]: 23 µM
- TGI [15]: 30.5 µM
- TGI [16]: 34.1 µM
- TGI [17]: 12.2 µM
- TGI [18]: 13.7 µM
- TGI [19]: 5.15 µM
- TGI [20]: > 45.7 µM
- TGI [21]: 31 µM
- TGI [22]: 11.1 µM
- TGI [23]: 5.23 µM
- TGI [24]: 35.1 µM
- TGI [25]: 9.27 µM
- TGI [26]: 21.5 µM
- TGI [27]: 3.16 µM
- TGI [29]: 20.9 µM
- TGI [30]: 16.5 µM
- TGI [31]: 20.4 µM
- TGI [32]: 6.88 µM
- TGI [33]: 28.3 µM
- TGI [34]: 8.01 µM
- TGI [57]: 3.25 µM
- TGI [35]: 4.92 µM
- TGI [36]: 3.63 µM
- TGI [37]: 21.5 µM
- TGI [38]: 10.1 µM
- TGI [58]: 31.5 µM
- TGI [39]: 15.9 µM
- TGI [40]: 9.36 µM
- TGI [41]: 12.2 µM
- TGI [42]: 7.86 µM
- TGI [43]: 22.4 µM
- TGI [44]: 23.3 µM
- TGI [45]: 7.89 µM
- TGI [46]: > 31.6 µM
- TGI [47]: 11 µM
- TGI [48]: 27.3 µM
- TGI [49]: 28.3 µM
- TGI [59]: 16.6 µM
- TGI [50]: 34.1 µM
- TGI [51]: 6.16 µM
- TGI [52]: 13.9 µM
- TGI [53]: 6.87 µM
- TGI [54]: > 50 µM
- TGI [55]: 51.5 µM

Compound: COc1cc(/C=C2\C(=O)N(C(=O)Cc3ccccc3)N=C2C)cc(OC)c1OC
- TGI [1]: > 100 µM
- TGI [2]: > 100 µM
- TGI [3]: > 100 µM
- TGI [56]: > 100 µM
- TGI [6]: > 100 µM
- TGI [7]: > 100 µM
- TGI [8]: > 100 µM
- TGI [11]: > 100 µM
- TGI [12]: > 100 µM
- TGI [13]: > 100 µM
- TGI [14]: > 100 µM
- TGI [15]: > 100 µM
- TGI [60]: > 100 µM
- TGI [16]: > 100 µM
- TGI [17]: > 100 µM
- TGI [19]: > 100 µM
- TGI [22]: > 100 µM
- TGI [23]: > 100 µM
- TGI [25]: > 100 µM
- TGI [26]: > 100 µM
- TGI [27]: > 100 µM
- TGI [28]: > 100 µM
- TGI [29]: > 100 µM
- TGI [61]: > 100 µM
- TGI [30]: > 100 µM
- TGI [31]: > 100 µM
- TGI [32]: > 100 µM
- TGI [62]: > 100 µM
- TGI [33]: > 100 µM
- TGI [57]: > 100 µM
- TGI [35]: > 100 µM
- TGI [36]: > 100 µM
- TGI [37]: > 100 µM
- TGI [40]: > 100 µM
- TGI [41]: > 100 µM
- TGI [63]: > 100 µM
- TGI [64]: > 100 µM
- TGI [45]: > 100 µM
- TGI [65]: > 100 µM
- TGI [46]: > 100 µM
- TGI [47]: > 100 µM
- TGI [48]: > 100 µM
- TGI [49]: > 100 µM
- TGI [59]: > 100 µM
- TGI [66]: > 100 µM
- TGI [51]: > 100 µM
- TGI [52]: > 100 µM
- TGI [53]: > 100 µM
- TGI [55]: > 100 µM
